In paper PMC7665192, “A natriuretic peptide from Arabidopsis thaliana (AtPNP-A) can modulate catalase 2 activity” (Scientific Reports, 2020):
Positions of bridges follow the written chain, without caps; N, C: chain ends. Residues, ends and D or L forms follow the SMILES beside them. *: point of attachment. Biotin = O=C1N[C@H]2[C@H](CS[C@H]2CCCCC(=O)*)N1

Key:
bovine liver CAT = target: T1, bovine liver CAT (Bos taurus, UniProt P00432); assay: SPR kinetic analysis, bovine liver CAT immobilized on CM5 chip; assay type: binding
T1 construct: bovine liver CAT (C-40; Sigma); purchased Sigma C-40; host or cells: bovine liver (tissue-derived enzyme)
T1 sequence (P00432 2-527 limits assumed): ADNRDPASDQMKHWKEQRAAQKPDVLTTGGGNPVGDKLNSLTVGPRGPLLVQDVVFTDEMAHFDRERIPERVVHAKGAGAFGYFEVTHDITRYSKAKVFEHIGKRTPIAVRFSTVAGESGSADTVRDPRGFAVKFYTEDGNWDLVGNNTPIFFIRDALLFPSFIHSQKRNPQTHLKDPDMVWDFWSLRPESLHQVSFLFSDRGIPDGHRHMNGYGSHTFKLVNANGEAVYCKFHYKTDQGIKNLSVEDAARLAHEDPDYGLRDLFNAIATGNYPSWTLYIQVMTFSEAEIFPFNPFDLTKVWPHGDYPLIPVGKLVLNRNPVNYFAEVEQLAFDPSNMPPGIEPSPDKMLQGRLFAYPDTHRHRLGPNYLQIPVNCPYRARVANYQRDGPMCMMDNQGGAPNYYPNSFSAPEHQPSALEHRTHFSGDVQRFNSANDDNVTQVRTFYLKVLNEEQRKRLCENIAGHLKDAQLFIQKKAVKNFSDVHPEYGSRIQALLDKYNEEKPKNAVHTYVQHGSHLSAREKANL
Procedure: SPR experiments were performed at 20 °C on Biacore T100 instrument operated using Biacore T100 control software (version 2.0.2, GE Healthcare Lifesciences) using Series S CM5 or NTA sensor chips as described in[21]. Kinetic analyses were performed at the flow of 100 μL min^−1 with pAtPNP-A (at 3.78 μM and consecutive twofold dilutions; 11 injections included) employed as a ligand and bovine liver CAT (C-40; Sigma) used as an analyte and immobilized on the active surface of the Series S CM5 sensor chip with amine coupling kit, while the surface regeneration was done with solution of glycine, pH 2.0, and the final sensorgram was generated with Scrubber (BioLogic Software Pty Ltd).

CAT2 recombinant (rCAT2) = assay: SPR, rCAT2 immobilized on NTA chip; assay type: binding, Arabidopsis thaliana; conditions: His-tagged rCAT2 immobilized at app. 4,500 RU, analytes at the same concentration, 20 °C
Procedure: N-terminally 6xHis-tagged AtPNP-A and CAT2 proteins were expressed in BL21 (DE3) One Shot E. coli cells (Life Technologies), purified by affinity chromatography with Ni–NTA beads (Qiagen) and HisTrap HP column (GE Healthcare Lifesciences) as described in[21]. The purity of preparations was verified on 12.5% SDS-PAGE, stained with Coomassie Brilliant Blue (Bio-Rad). Protein identities were confirmed in MS analysis, and protein concentration was determined according to the method of Bradford using BSA as a standard.
SPR experiments were performed at 20 °C on Biacore T100 instrument operated using Biacore T100 control software (version 2.0.2, GE Healthcare Lifesciences) using Series S CM5 or NTA sensor chips as described in[21]. […]
Figure 2 AtPNP-A directly interacts with Arabidopsis CAT2 and bovine liver CAT in vitro. […] The models were analyzed and visualized using UCSF Chimera (version 1.10.2; https://www.cgl.ucsf.edu/chimera/)[55]. […]

Which results are given for `CC(C)C[C@@H]1NC(=O)[C@H](CC(N)=O)NC(=O)[C@H](CC(N)=O)NC(=O)[C@H](CCCCN)NC(=O)[C@H](C(C)C)NC(=O)CNC(=O)[C@H](C(C)C)NC(=O)[C@H](C(C)C)NC(=O)[C@H](CC(C)C)NC(=O)[C@H]([C@@H](C)O)NC(=O)[C@H](CCC(=O)O)NC(=O)[C@H](CCCNC(=N)N)NC(=O)[C@H](CCC(N)=O)NC(=O)[C@H]([C@@H](C)O)NC(=O)CNC(=O)[C@H](Cc2ccc(O)cc2)NC(=O)[C@@H](NC(=O)[C@H](C)NC(=O)[C@H](CO)NC(=O)[C@H](CCCNC(=N)N)NC(=O)[C@@H](NC(=O)[C@H](Cc2ccc(O)cc2)NC(=O)[C@@H]2CCCN2)[C@@H](C)O)CSSC[C@@H](C(=O)NCC(=O)N[C@@H](CCCNC(=N)N)C(=O)N[C@@H](CCCNC(=N)N)C(=O)N[C@@H](Cc2ccc(O)cc2)C(=O)N[C@@H](CCCNC(=N)N)C(=O)N[C@H](C(=O)N[C@@H](CCCNC(=N)N)C(=O)N[C@@H](CCCCNC(=O)CCCC[C@@H]2SC[C@@H]3NC(=O)N[C@@H]32)C(=O)O)C(C)C)NC(=O)[C@H](C)NC(=O)[C@H](CCCNC(=N)N)NC(=O)CNC(=O)[C@H](CC(N)=O)NC(=O)[C@H](CCC(N)=O)NC(=O)[C@H](Cc2c[nH]c3ccccc23)NC1=O` [pAtPNP-A] (H-PYTRSACYGTQRETLVVGVKNNLWQNGRACGRRYRVRK(Biotin)-OH; disulfide 7-30; N-terminus and C-terminus assumed)?
Chi2, average squared residual (bovine liver CAT; SPR kinetic fit, 20 °C): 10.4 RU2; U-value, uniqueness value for kinetic rate constants (bovine liver CAT; SPR kinetic fit, 20 °C): 2; Specificity of binding to bovine CAT (bovine liver CAT; SPR, both ligand-analyte configurations, amine coupling): points to a specific interaction; SPR binding response to rCAT2 (CAT2 recombinant (rCAT2)): significant accumulation of the biologically active analyte
